Where no end group is shown, it is not given here.
Experiments:
VDBP = biological target: T1, VDBP (Homo sapiens, UniProt P02774); details: relative to vitamin D3; Am J Kidney Dis, 1998; 32:S25-39; cited from earlier work
T1 sequence (P02774 17-474): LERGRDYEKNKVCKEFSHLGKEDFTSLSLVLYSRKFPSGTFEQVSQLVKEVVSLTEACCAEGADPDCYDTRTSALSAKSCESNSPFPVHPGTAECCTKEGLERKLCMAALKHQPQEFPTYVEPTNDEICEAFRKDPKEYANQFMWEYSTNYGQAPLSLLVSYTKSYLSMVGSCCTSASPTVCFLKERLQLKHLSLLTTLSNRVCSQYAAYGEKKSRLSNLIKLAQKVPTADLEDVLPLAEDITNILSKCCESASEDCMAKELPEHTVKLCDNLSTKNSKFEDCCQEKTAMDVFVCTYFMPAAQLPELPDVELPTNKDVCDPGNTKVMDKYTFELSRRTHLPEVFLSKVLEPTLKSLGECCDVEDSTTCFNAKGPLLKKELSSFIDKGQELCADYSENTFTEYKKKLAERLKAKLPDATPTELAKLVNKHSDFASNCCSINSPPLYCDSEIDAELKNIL

[1] = tested on: MCF-7 human breast cancer cell; experiment: MCF-7 cell proliferation (Calbiochem Rapid Cell Proliferation Kit); assay type: cell-based; details: for Absorbance units (×10^3), cell proliferation: control (no addition) 450 ± 21
Procedure: The biological activity of the molecules and the multimolecular complexes described in the preceding sections was tested in an in vitro system (MCF-7 human breast cancer cell cultures) that is routinely used to assess the biological activity of vitamin D3 and of the other components of the vitamin D axis (Evid Based Complement Alternat Med. 2012; 2012:310872. Oncol Rep. 2012 December; 28(6):2131-7. Anticancer Res. 2012 March; 32(3):739-46). Human breast carcinoma cells MCF-7 were challenged with different concentration of vitamin D3, de-VDBP, and [vitamin D3/de-VDBP/oleic acid]. […] The same level of inhibition, however, could be achieved with 1000 fold less vitamin D3 when it was complexed with de-VDBP and oleic acid.

C=C1/C(=C\C=C2/CCC[C@]3(C)[C@@H]([C@H](C)OCCC(C)(C)O)CC[C@@H]23)C[C@@H](O)C[C@@H]1O [22-oxacalcitriol]
VDBP affinity (VDBP): low

[2H]C([2H])=C1/C(=C([2H])\C=C2/CCC[C@]3(C)[C@@H]([C@H](C)CCCC(C)(C)O)CC[C@@H]23)C[C@@H](O)C[C@@H]1O [Vitamin D3, 1α,25-Dihydroxyvitamin D3 (6,19,19-d3)]
Absorbance units (×10^3), cell proliferation ([1]; Vitamin D3 1 nM): 425 ± 10 Absorbance units (×10^3)
Absorbance units (×10^3), cell proliferation ([1]; Vitamin D3 1 uM): 55 ± 10 Absorbance units (×10^3)
Concentration giving maximal inhibition of MCF-7 proliferation ([1]; very high, non-physiological concentration): 1 µM

C=C1/C(=C\C=C2/CCC[C@]3(C)[C@@H]([C@H](C)/C=C/[C@@H](O)C4CC4)CC[C@@H]23)C[C@@H](O)C[C@@H]1O [calcipotriene]
VDBP affinity (VDBP): low

de-VDBP: vitamin D binding protein de-glycosylated at position Thr 420 by sequential removal of sialic acid and galactose (DSTTCFNAKGPLLKKELSSFIDKGQELC; cysteine pairing not given here; also: de-glycosylated at Thr 420 by removal of sialic acid and galactose; listed as Homo sapiens)
Absorbance units (×10^3), cell proliferation ([1]; de-VDBP 1 ng/ml): 395 ± 37 Absorbance units (×10^3)

B1: [Vitamin D3 1 nM/de-VDBP 1 ng/ml/oleic acid 1/1]: trimeric complex of vitamin D3 and oleic acid bound to de-VDBP via hydrophobic interactions (protein, UniProt P02774 17-474, looked up)
Vitamin D-binding protein: T1 sequence (P02774 17-474)
modifications: deglycosylated; vitamin D3 and oleic acid bound
Absorbance units (×10^3), cell proliferation ([1]; Vitamin D3 1 nM / de-VDBP 1 ng/ml / oleic acid ratio 1/1): 55 ± 9 Absorbance units (×10^3)
Fold less vitamin D3 needed for the same level of inhibition ([1]; versus 1 uM vitamin D3 alone): 1000 fold
